Patent US10450572B2, “Androgen receptor variant inhibitors and methods of using” (Regents of the University of Minnesota, priority 2016, dated 2019)
“Also recorded” adds a separate entry of the source. {Fluorescein} = fluorescein label

Experiments:
AR-FL [1] = test: AR subcellular fractionation and western blot; assay type: cell-based, human; details: 22Rv1-undup3 cells; 1 nM, 24 hours; FIG. 8
Experimental: For AR subcellular fractionation, 22Rv1-undup3 cells were seeded in RPMI medium supplemented with 10% CSS for 24 hours and treated with either ethanol (vehicle) or 1 nM mibolerone (synthetic androgen) for 24 hours. Cells were washed with 1×PBS, harvested in hypotonic buffer, and subjected to subcellular fractionation as described elsewhere (see, e.g., Chan et al., 2012, J. Biol. Chem., 287:19736-49). Lysates in 1× Laemmli buffer were loaded in equal volumes on either 7.5% or 4-15% polyacrylamide gels (Biorad TGX) and electrophoresed at 200v for 30 minutes.
Blots were incubated with antibodies specific to CPSF1 (Bethyl, A301-580, 1:1000), AR (Santa Cruz Santa Cruz Biotechnology N-20, 1:2000), extracellular signal-regulated kinase-2 (ERK-2; Santa Cruz Biotechnology D-2, 1:4000), and AR-V7 (Precision Antibodies, 1:1000). HRP-conjugated goat-anti-mouse (#sc 2005, lot#D1515), and goat-anti-rabbit (#sc 2004, lot#B1315) secondary antibodies were obtained from Santa Cruz and were used at 1:10000 dilutions. Blots were incubated in enhanced chemiluminescence substrate (WesternBright, Advansta #K12045-D50 or SuperSignal West Pico, Thermo #1859674) and exposed to X-ray film for chemiluminescence detection.

AR-V proteins = test: AR-V protein expression in E43 cells (western blot); assay type: cell-based; details: E43 cells transfected with CE3 pAM; FIG. 3A
Experimental: (§1) E43 cells were cultured in RPMI-1640 and supplemented with 10% FBS and 500 μg/mL penicillin/streptomycin. For androgen blockade experiments, E43 cells were cultured in RPMI-1640 supplemented with 10% charcoal stripped FBS and 500 μg/mL penicillin/streptomycin. Transient transfections were performed using a BTX Square Wave electroporator. Transient transfection of E43 cells with the indicated concentration of CE3 pAM were carried out in RPMI-1640 supplemented with 10% FBS, and subsequently plated in appropriate culture medium. When appropriate, E43 cells were treated with 10 μM enzalutamide (MDV-3100, Selleck Chemicals) in indicated cell culture medium. E43 cells in cell culture medium were treated with vivo-CE3 pAM in 1X phosphate buffered saline at the indicated concentrations.

full-length AR (AR-FL) = test: full-length AR expression in E43 cells; assay type: cell-based; details: E43 cells transfected with CE3 pAM; FIG. 3A
Experimental: as §1

[2] = system: AR-V2, AR-V5, AR-V7, and AR-V9 mRNA; test: AR-V mRNA expression in E43 cells; assay type: cell-based; details: E43 cells transfected with CE3 pAM; FIG. 3B
Experimental: as §1

E43 cells = test: crystal violet growth assay of E43 cells; assay type: cell-based; details: FIG. 3C; for cell growth (crystal violet staining): E43 cells
Experimental: as §1
20,000 E43 cells transfected with 10 μM CE3 pAM or control morpholino were plated in 24-well dishes in the indicated culture medium and subjected to the indicated drug treatments. Crystal violet assays were performed on cells on days 2, 4, 6, 8, 11, and 14. Briefly, cells were fixed in 1% glutaraldehyde in 1X PBS and stained with 0.5% crystal violet in distilled water. At the end of the timecourse, fixed and stained cells were subjected to treatment with Sorenson's buffer (6.1 ml of 0.1 M disodium citrate, 3.9 ml of 0.1N HCl, and 10 ml of 95% ethanol) to release dye. Absorbance was measured at 560 nm.

[3] = system: AR-V7, AR-V9 (EX3:CE5), AR-V1 (EX3:CE1), AR-V6 (EX3:CE2a); test: AR-V mRNA and protein expression after morpholino transfection (RT-qPCR, western blot); assay type: cell-based, human; details: FIG. 11C
Experimental: (§2) 22Rv1 cells (CRL-2505) were obtained from ATCC (Manassas, Va., USA) and cultured according to ATCC protocol. LNCaP95 cells were cultured in phenol red free RMPI 1640 (Invitrogen) supplemented with 10% fetal bovine serum and 1× penicillin/streptomycin. VCaP cells (ATCC CRL-2876) were cultured in DMEM medium (Invitrogen) supplemented with 10% fetal bovine serum and 1× penicillin/streptomycin. ATCC authenticates human cell lines using short tandem repeat analysis. Cell lines were routinely monitored for mycoplasma infection by regularly evaluating aliquots of supernatants from cells in culture for mycoplasma contamination using a PCR-based method as described elsewhere (see, e.g., Uphoff et al., 2012, J. Biomed. Biotechnol., 2012:267678). […]
(§3) RNA was isolated from cells using the Reliaprep RNA Miniprep System (Promega) and purified according to kit manufacturer instructions, including a 30-minute room temperature DNase treatment. […] RNA concentration and integrity were assessed by denaturing gel electrophoresis or by spectrophotometry with a NanoDrop 2000 (ThermoFisher). […]
(§4) Quantitative PCR was performed using Quanta PerfeCTa master mix, 200 nM forward and reverse primers, and 2 μL input cDNA (serially diluted in nuclease free water 1:50 for 18S samples) in 20 μL reactions. […] Cycle thresholds (Ct) were determined using the Biorad CFX manager software. […]

AR-FL [4] = test: AR-FL expression after morpholino transfection; assay type: cell-based, human; details: FIG. 11C
Experimental: as §2, §3, §4

22Rv1 cells = test: crystal violet growth assay of 22Rv1 cells; assay type: cell-based, human; details: parental 22Rv1 cells transfected with 10 μM; androgen-deplete conditions; FIG. 11D
Experimental: (§5) 22Rv1 cells (CRL-2505) were obtained from ATCC (Manassas, Va., USA) and cultured according to ATCC protocol. LNCaP95 cells were cultured in phenol red free RMPI 1640 (Invitrogen) supplemented with 10% fetal bovine serum and 1× penicillin/streptomycin. VCaP cells (ATCC CRL-2876) were cultured in DMEM medium (Invitrogen) supplemented with 10% fetal bovine serum and 1× penicillin/streptomycin. ATCC authenticates human cell lines using short tandem repeat analysis. Cell lines were routinely monitored for mycoplasma infection by regularly evaluating aliquots of supernatants from cells in culture for mycoplasma contamination using a PCR-based method as described elsewhere (see, e.g., Uphoff et al., 2012, J. Biomed. Biotechnol., 2012:267678).
GeneTools' design tool was used to design a 25-mer consisting of the sequence 5′-[…]-3′ (SEQ ID NO:2) targeted to the CE3 PAS (CE3 pAM). As a control, a standard commercially available nontargeting control morpholino was used (GeneTools). […]
(§6) Electroporated 22Rv1 cells and sublines were seeded at 20,000 cells per well in 24 well dishes in RPMI 1640 supplemented with 10% charcoal-stripped FBS. […] Crystal violet staining assays were performed as described elsewhere (see, e.g., Li et al., 2013, Cancer Res., 73:483-9) and absorbance was measured at 560 nm. Significance was assessed by two tailed t-tests in GraphPad.

22Rv1-undup3 cells = test: crystal violet growth assay of 22Rv1-undup3 cells; assay type: cell-based, human; details: 22Rv1-undup3 cells transfected with 10 μM, FIG. 11D
Experimental: as §5
Cell/siRNA mixtures were electroporated in a 4-mm gap-width cuvette (BTX) with a BTX Square Wave Electroporator (22Rv1 and sublines: 350 V, 10 ms pulse, LNCaP95: 305 V, 10 ms pulse). Following a 15-minute recovery, cells were seeded in appropriate culture medium. […]
as §6

AR-V7 mRNA = test: specificity test with morpholinos tiling the CE3 PAS: AR-V7 mRNA; assay type: cell-based, human; details: 22Rv1 cells; 10 μM morpholino, 24 hours after transfection; FIG. 19B
Experimental: (§7) GeneTools' design tool was used to design morpholinos targeting upstream and downstream regions of AR CE3. Sequences were as follows:
(§8) 22Rv1 cells were transfected with 10 μM control and morpholinos tiling upstream (us) and downstream (ds) of the CE3 PAS (us 100, us 50, CE3 pAM, ds 50, ds 150).
(§9) Total RNA from tumor tissue was purified using the Promega Reliaprep Tissue kit according to manufacturer instructions, including the on-column DNAse treatment. RNA was eluted in nuclease free water. Reverse transcription and quantitative PCR were performed as described in Example 2. Data were analyzed using the ΔΔCt method and normalized to actin-2 (internal control).

AR mRNA = test: specificity test with morpholinos tiling the CE3 PAS: AR mRNA; assay type: cell-based, human; details: 22Rv1 cells; 10 μM morpholino, 24 hours after transfection; FIG. 19B
Experimental: as §7, §8, §9

[5] = 22Rv1-undup3 cells transfected with 10 μM
[6] = 22Rv1 cells transfected with 10 μM

Row | Molecule | nuclear localization of AR-FL (AR-FL [1]) | expression of AR-V proteins (AR-V proteins) | expression of full-length AR (AR-FL) (full-length AR (AR-FL)) | expression of AR-V2, AR-V5, AR-V7, and AR-V9 mRNA [2] | reduction in cell growth assessed by crystal violet staining (E43 cells; E43 cells transfected, charcoal stripped serum, plus 10 uM enzalutamide) [%] | cell growth (crystal violet staining) (E43 cells; 10 μM morpholino transfected, maximum androgen blockade castration+enzalutamide) | cell growth (crystal violet staining) (E43 cells; transfected, androgenic conditions) | mRNA and protein expression of AR-V7, AR-V9, AR-V1, AR-V6 [3, 5] | mRNA and protein expression of AR-V7, AR-V9, AR-V1, AR-V6 [3, 6] | expression of AR-FL (AR-FL [4]; [5]) | expression of AR-FL (AR-FL [4]; [6]) | growth (crystal violet) (22Rv1 cells) | growth (crystal violet) (22Rv1-undup3 cells; androgen-deplete conditions) | growth (crystal violet) (22Rv1-undup3 cells; androgen-replete conditions (1 nM DHT)) | AR-V7 mRNA levels (AR-V7 mRNA) | AR mRNA levels (AR mRNA)
1 | C[C@@H]1CC2=CC(=O)CC[C@@H]2[C@H]2CC[C@@]3(C)[C@@H](CC[C@]3(C)O)[C@@H]21 [mibolerone] | strong nuclear localization; also recorded: localizes to the nucleus |  |  |  |  |  |  |  |  |  |  |  |  |  |  | 
2 | CE3 pAM: 25-mer morpholino 5′-GTGTATTAATGGCTTTATTAAGGGA-3′ (SEQ ID NO:2) designed to block the AR CE3 poly A signal (all phosphorodiamidate morpholino (PMO), 3' {Fluorescein}; further chemistry not fully specified) |  | blocks; also recorded: dramatically reduced | increase expression | blocks; also recorded: blocked expression | ~50 | blocks growth; also recorded: inhibited cell growth | not under androgenic conditions | reduction | reduction | increase | increase | reduction in growth | reduction in growth | inhibited growth | reduced | increased
